According to PubChem BioAssay AID330 (DTP/NCI, 2004):
“And” between values parts separate entries of the source, which are not always exact repeats. Equal entries are not always repeated. Toxic doses and inconclusive results are not listed. How the source made its calls: active means survival T/C of 150% or more; inactive means T/C below 125% in these data. Square brackets hold non-standard residues; d marks the D form. Peptide text beside a SMILES is read from it. * marks the point of attachment. ξ: configuration not given here. Cbz = O=C(OCc1ccccc1)*; Nva = CCC[CH](N)C(=O)O; OBn = c1ccc(CO*)cc1; Bn = c1ccc(C*)cc1; ξC = NC(CS)C(=O)O

Tested on: P388 leukemia ip, CD2F1 mice, survival T/C
Test: NCI In Vivo Anticancer Drug Screen. Data for tumor model P388 Leukemia (intraperitoneal) in CD2F1 (CDF1) mice
Details: endpoint: median survival time, higher = longer survival
Summary of the method: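 Mice carrying the transplanted tumor received test compound or vehicle. Survival was recorded in each group, and the value is the treated-group measurement divided by that of the vehicle-treated control group.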

[1] = dose: 400.0 mg/kg/injection, schedule: Q01DX009 (ip), vehicle: Klucel (hydroxypropylcellulose) (HPC)
[2] = dose: 50.0 mg/kg/injection, schedule: Q01DX005 (ip), vehicle: saline
[3] = dose: 100.0 mg/kg/injection, schedule: Q01DX005 (ip), vehicle: saline
[4] = dose: 12.5 mg/kg/injection, schedule: Q01DX005 (ip), vehicle: Klucel (hydroxypropylcellulose) (HPC)
[5] = dose: 25.0 mg/kg/injection, schedule: Q01DX005 (ip), vehicle: Klucel (hydroxypropylcellulose) (HPC)
[6] = dose: 50.0 mg/kg/injection, schedule: Q01DX005 (ip), vehicle: Klucel (hydroxypropylcellulose) (HPC)
[7] = dose: 50.0 mg/kg/injection, schedule: Q01DX005 (ip), vehicle: saline with Tween-80
[8] = dose: 100.0 mg/kg/injection, schedule: Q01DX005 (ip), vehicle: saline with Tween-80
[9] = dose: 200.0 mg/kg/injection, schedule: Q01DX005 (ip), vehicle: saline with Tween-80
[10] = dose: 100.0 mg/kg/injection, schedule: Q01DX005 (ip), vehicle: Klucel (hydroxypropylcellulose) (HPC)
[11] = dose: 200.0 mg/kg/injection, schedule: Q01DX005 (ip), vehicle: Klucel (hydroxypropylcellulose) (HPC)
[12] = dose: 50.0 mg/kg/injection, schedule: Q01DX009 (ip), vehicle: saline with Tween-80
[13] = dose: 100.0 mg/kg/injection, schedule: Q01DX009 (ip), vehicle: saline with Tween-80
[14] = dose: 200.0 mg/kg/injection, schedule: Q01DX009 (ip), vehicle: saline with Tween-80
[15] = dose: 100.0 mg/kg/injection, schedule: Q01DX001 (ip), vehicle: Klucel (hydroxypropylcellulose) (HPC)
[16] = dose: 100.0 mg/kg/injection, schedule: Q01DX001 (ip), vehicle: saline with Tween-80
[17] = dose: 200.0 mg/kg/injection, schedule: Q01DX001 (ip), vehicle: saline with Tween-80
[18] = dose: 400.0 mg/kg/injection, schedule: Q01DX001 (ip), vehicle: saline with Tween-80
[19] = dose: 50.0 mg/kg/injection, schedule: Q01DX009 (ip), vehicle: saline
[20] = dose: 100.0 mg/kg/injection, schedule: Q01DX009 (ip), vehicle: saline
[21] = dose: 200.0 mg/kg/injection, schedule: Q01DX009 (ip), vehicle: saline
[22] = dose: 12.5 mg/kg/injection, schedule: Q01DX001 (ip), vehicle: Klucel (hydroxypropylcellulose) (HPC)
[23] = dose: 25.0 mg/kg/injection, schedule: Q01DX001 (ip), vehicle: Klucel (hydroxypropylcellulose) (HPC)
[24] = dose: 50.0 mg/kg/injection, schedule: Q01DX001 (ip), vehicle: Klucel (hydroxypropylcellulose) (HPC)

Measured: T/C

c1nc(Sc2ncnc3nc[nH]c23)c2[nH]cnc2n1
inactive: dose: 180.0 mg/kg/injection, schedule: Q01DX009 (ip), vehicle: Klucel (hydroxypropylcellulose) (HPC) 100 % of control | dose: 266.0 mg/kg/injection, schedule: Q01DX009 (ip), vehicle: Klucel (hydroxypropylcellulose) (HPC) 100 % of control | [1] 100 % of control

CN1CC(F)OC(F)(F)C1 (centres undefined)
inactive: [2] 102 % of control | [3] 100 % of control | dose: 200.0 mg/kg/injection, schedule: Q01DX005 (ip), vehicle: saline 100 % of control

O=C(CNC(=O)C(CSCc1ccccc1)NC(=O)OCc1ccccc1)NCC(=O)OCc1ccccc1 (stereo not drawn) (Cbz-[ξC](Bn)-Gly-Gly-OBn)
inactive: [4] 102 % of control | [5] 95 % of control | [6] 102 % of control

CO/C(C)=C1/C(=O)O/C(=C/Nc2ccccc2)C1=O
inactive: [7] 107 % of control | [8] 107 % of control | [9] 96 % of control

CCOc1c(N=Nc2ccccc2C)c(C)nn1C(=S)SC
inactive: dose: 60.0 mg/kg/injection, schedule: Q01DX005 (ip), vehicle: Klucel + Tween-80 95 % of control | dose: 120.0 mg/kg/injection, schedule: Q01DX005 (ip), vehicle: Klucel + Tween-80 92 % of control

CN(C)C1=CC(=O)NC2CCCCC12 (centres undefined)
inactive: [6] 95 % of control | [10] 98 % of control | [11] 105 % of control

CN(C)c1ccc(-c2nc(-c3ccccc3)c(-c3ccccc3)[nH]2)cc1
inactive: [12] 104 % of control | [13] 100 % of control | [14] 104 % of control | dose: 400.0 mg/kg/injection, schedule: Q01DX009 (ip), vehicle: saline with Tween-80 106 % of control

COc1ccc2c(c1)nc(-c1ccccn1)n2CCc1ccccn1
inactive: dose: 50.0 mg/kg/injection, schedule: Q04DX002 (ip), vehicle: Klucel (hydroxypropylcellulose) (HPC) 113 % of control | dose: 100.0 mg/kg/injection, schedule: Q04DX002 (ip), vehicle: Klucel (hydroxypropylcellulose) (HPC) 101 % of control | dose: 200.0 mg/kg/injection, schedule: Q04DX002 (ip), vehicle: Klucel (hydroxypropylcellulose) (HPC) 104 % of control | dose: 400.0 mg/kg/injection, schedule: Q04DX002 (ip), vehicle: Klucel (hydroxypropylcellulose) (HPC) 101 % of control

CCCC(NC(=O)OCc1ccccc1)C(=O)NC(C(=O)O)C(C)C (centres undefined) (Cbz-[Nva]-Val-OH; configuration not given here)
inactive: [6] 94 % of control | [10] 92 % of control | [11] 96 % of control

CCCCCCCCCCN(CCCCCCCCCC)C(C)C(=O)c1ccc2cc(Br)c3ccccc3c2c1 (centres undefined)
inactive: [7] 99 % of control | [8] 89 % of control | [9] 104 % of control

Cc1ccc(C(C(=O)O)(c2ccc(C)c(C)c2)C(O)C(=O)O)cc1C (centres undefined)
inactive: [15] 106 % of control | dose: 200.0 mg/kg/injection, schedule: Q01DX001 (ip), vehicle: Klucel (hydroxypropylcellulose) (HPC) 106 % of control | dose: 400.0 mg/kg/injection, schedule: Q01DX001 (ip), vehicle: Klucel (hydroxypropylcellulose) (HPC) 104 % of control

CCOC(=O)Cc1cc(O)c(C(=O)OCC)c(O)c1C(=O)OCC
inactive: [16] 105 % of control | [17] 105 % of control | [18] 99 % of control

N#CCc1ccccc1-c1ccccc1
inactive: [4] 99 % of control | [5] 94 % of control | [6] 99 % of control

CCCNC(=O)Nc1cc(Cl)ccc1OC
inactive: dose: 132.0 mg/kg/injection, schedule: Q04DX003 (ip), vehicle: saline with Tween-80 100 % of control | dose: 200.0 mg/kg/injection, schedule: Q04DX003 (ip), vehicle: saline with Tween-80 100 % of control | dose: 300.0 mg/kg/injection, schedule: Q04DX003 (ip), vehicle: saline with Tween-80 100 % of control

CCCOC1(C)CC(c2cc(OC)c(OC)c(OC)c2)c2cc3c(cc2O1)OCO3 (centres undefined)
inactive: dose: 60.0 mg/kg/injection, schedule: Q01DX005 (ip), vehicle: Klucel (hydroxypropylcellulose) (HPC) 93 % of control | dose: 120.0 mg/kg/injection, schedule: Q01DX005 (ip), vehicle: Klucel (hydroxypropylcellulose) (HPC) 91 % of control | dose: 240.0 mg/kg/injection, schedule: Q01DX005 (ip), vehicle: Klucel (hydroxypropylcellulose) (HPC) 91 % of control

CNC(=O)OCC1=CC(=O)C(OC)=C(OC)C1=O
inactive: dose: 7.5 mg/kg/injection, schedule: Q01DX005 (ip), vehicle: saline with Tween-80 104 % of control | dose: 15.0 mg/kg/injection, schedule: Q01DX005 (ip), vehicle: saline with Tween-80 100 % of control | dose: 30.0 mg/kg/injection, schedule: Q01DX005 (ip), vehicle: saline with Tween-80 100 % of control

O=C(CCS(=O)(=O)CCC(=O)c1ccco1)c1ccco1
inactive: dose: 100.0 mg/kg/injection, schedule: Q04DX003 (ip), vehicle: saline 94 % of control | dose: 200.0 mg/kg/injection, schedule: Q04DX003 (ip), vehicle: saline 94 % of control | dose: 400.0 mg/kg/injection, schedule: Q04DX003 (ip), vehicle: saline 90 % of control

CC(=O)Nc1cnc2c(nc3cc(C)ccn32)c1C
inactive: dose: 60.0 mg/kg/injection, schedule: Q01DX005 (ip), vehicle: saline with Tween-80 106 % of control | dose: 120.0 mg/kg/injection, schedule: Q01DX005 (ip), vehicle: saline with Tween-80 100 % of control | dose: 240.0 mg/kg/injection, schedule: Q01DX005 (ip), vehicle: saline with Tween-80 97 % of control

O=C1CNC(=O)C(Cc2c[nH]c3ccccc23)N1 (centres undefined)
inactive: [19] 100 % of control | [20] 96 % of control | [21] 100 % of control

COc1ccc(/C(C)=N/OC(=O)c2c(-c3ccccc3Cl)noc2C)cc1CN1CCOCC1
inactive: [19] 94 % of control | [20] 97 % of control | [21] 97 % of control

O=C(O)CNO
inactive: dose: 50.0 mg/kg/injection, schedule: Q01DX009 (ip), vehicle: Klucel (hydroxypropylcellulose) (HPC) 101 % of control | dose: 100.0 mg/kg/injection, schedule: Q01DX009 (ip), vehicle: Klucel (hydroxypropylcellulose) (HPC) 105 % of control | dose: 200.0 mg/kg/injection, schedule: Q01DX009 (ip), vehicle: Klucel (hydroxypropylcellulose) (HPC) 104 % of control | [1] 110 % of control

O=C1NC(O)c2cccc(F)c2O1 (centres undefined)
inactive: [7] 100 % of control | [8] 102 % of control

CC(=O)OCc1c(-c2ccccc2)nc2n1CCS2
inactive: [22] 101 % of control and 95 % of control | [23] 114 % of control and 106 % of control | [24] 108 % of control and 107 % of control | [15] 86 % of control

CCC1CCCCN1C (centres undefined)
inactive: dose: 25.0 mg/kg/injection, schedule: Q01DX005 (ip), vehicle: saline 103 % of control | dose: 25.0 mg/kg/injection, schedule: Q01DX009 (ip), vehicle: saline 105 % of control | [2] 98 % of control | [19] 110 % of control | [3] 95 % of control

O=C(Nc1ccc(F)cc1)/C(Cl)=C1/Sc2ccccc2NC1=O
inactive: [16] 102 % of control | [17] 94 % of control | [18] 94 % of control

CN1C(=O)c2ccccc2Cc2c(NCc3ccccc3)ncnc21
inactive: [12] 108 % of control | [13] 104 % of control | [14] 100 % of control

CC1(C)CC(OP(=[Se])(OC2CC(C)(C)N(O)C(C)(C)C2)N2CC2)CC(C)(C)N1O
inactive: [22] 102 % of control | [23] 105 % of control | [24] 106 % of control

Nc1ccc(S(=O)c2ccc(N)cc2)cc1
inactive: dose: 6.25 mg/kg/injection, schedule: Q04DX003 (ip), vehicle: saline 118 % of control | dose: 12.5 mg/kg/injection, schedule: Q04DX003 (ip), vehicle: saline 107 % of control | dose: 25.0 mg/kg/injection, schedule: Q04DX003 (ip), vehicle: saline 104 % of control | dose: 50.0 mg/kg/injection, schedule: Q04DX003 (ip), vehicle: saline 109 % of control
